#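 The compound was tested at five concentrations on cells cultured in 96-well plates, with a 48-hour exposure period. Abbreviation: GI50, concentration required for 50% inhibition of growth. TGI is the concentration that stops growth completely.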
# Experiments:
# Test in all cases: NCI tumour cell line growth inhibition, 48 h
# HT29 colon = tested on: HT29 colon
# MCF7 breast = tested on: MCF7 breast
# 786-0 renal = tested on: 786-0 renal
# SNB-19 CNS = tested on: SNB-19 CNS
# SK-MEL-2 melanoma = tested on: SK-MEL-2 melanoma
# PC-3 prostate = tested on: PC-3 prostate
# OVCAR-3 ovarian = tested on: OVCAR-3 ovarian
# IGROV1 ovarian = tested on: IGROV1 ovarian
# SNB-75 CNS = tested on: SNB-75 CNS
# RPMI-8226 leukemia = tested on: RPMI-8226 leukemia
# NCI-H23 lung = tested on: NCI-H23 lung
# KM12 colon = tested on: KM12 colon
# ACHN renal = tested on: ACHN renal
# T-47D breast = tested on: T-47D breast
# A549 NSCLC = tested on: A549 NSCLC
# SF-295 CNS = tested on: SF-295 CNS
# UO-31 renal = tested on: UO-31 renal
# OVCAR-4 ovarian = tested on: OVCAR-4 ovarian
# TK-10 renal = tested on: TK-10 renal
# OVCAR-8 ovarian = tested on: OVCAR-8 ovarian
# COLO 205 colon = tested on: COLO 205 colon
# HOP-62 NSCLC = tested on: HOP-62 NSCLC
# MDA-MB-231 breast = tested on: MDA-MB-231 breast
# HCT-15 colon = tested on: HCT-15 colon
# NCI-H460 lung = tested on: NCI-H460 lung
# UACC-257 melanoma = tested on: UACC-257 melanoma
# SK-OV-3 ovarian = tested on: SK-OV-3 ovarian
# SW-620 colon = tested on: SW-620 colon
# HS 578T breast = tested on: HS 578T breast
smiles,measurement,setting,value
O=C1C(c2ccccc2)=C(N2CCc3ccccc32)OC1(Cl)Cl,GI50,HT29 colon,2.25 µM
same,TGI,HT29 colon,5.37 µM
same,GI50,MCF7 breast,2.29 µM
same,TGI,MCF7 breast,9.59 µM
same,GI50,786-0 renal,1.82 µM
same,TGI,786-0 renal,4.21 µM
same,GI50,SNB-19 CNS,5.27 µM
same,TGI,SNB-19 CNS,22.9 µM
same,GI50,SK-MEL-2 melanoma,3.57 µM
same,TGI,SK-MEL-2 melanoma,18.6 µM
same,GI50,PC-3 prostate,4.03 µM
same,TGI,PC-3 prostate,54.6 µM
same,GI50,OVCAR-3 ovarian,1.91 µM
same,TGI,OVCAR-3 ovarian,3.89 µM
same,GI50,IGROV1 ovarian,4.44 µM
same,TGI,IGROV1 ovarian,29 µM
same,GI50,SNB-75 CNS,2.52 µM
same,TGI,SNB-75 CNS,17.2 µM
same,GI50,RPMI-8226 leukemia,2.36 µM
same,TGI,RPMI-8226 leukemia,6.09 µM
same,GI50,NCI-H23 lung,1.96 µM
same,TGI,NCI-H23 lung,4.67 µM
same,GI50,KM12 colon,5.13 µM
same,TGI,KM12 colon,18.8 µM
same,GI50,ACHN renal,2.27 µM
same,TGI,ACHN renal,7.14 µM
same,GI50,T-47D breast,2.19 µM
same,TGI,T-47D breast,9.86 µM
same,GI50,A549 NSCLC,4.71 µM
same,TGI,A549 NSCLC,32.7 µM
same,GI50,SF-295 CNS,14.1 µM
same,TGI,SF-295 CNS,32.4 µM
same,GI50,UO-31 renal,1.44 µM
same,TGI,UO-31 renal,3.07 µM
same,GI50,OVCAR-4 ovarian,3.38 µM
same,TGI,OVCAR-4 ovarian,13.6 µM
same,GI50,TK-10 renal,2 µM
same,TGI,TK-10 renal,4.91 µM
same,GI50,OVCAR-8 ovarian,3.58 µM
same,TGI,OVCAR-8 ovarian,> 100 µM
same,GI50,COLO 205 colon,1.85 µM
same,TGI,COLO 205 colon,4.36 µM
same,GI50,HOP-62 NSCLC,12.2 µM
same,TGI,HOP-62 NSCLC,35.8 µM
same,GI50,MDA-MB-231 breast,2.89 µM
same,TGI,MDA-MB-231 breast,9.09 µM
same,GI50,HCT-15 colon,1.74 µM
same,TGI,HCT-15 colon,4.56 µM
same,GI50,NCI-H460 lung,3.96 µM
same,TGI,NCI-H460 lung,20.2 µM
same,GI50,UACC-257 melanoma,2.53 µM
same,TGI,UACC-257 melanoma,8.28 µM
same,GI50,SK-OV-3 ovarian,13.4 µM
same,TGI,SK-OV-3 ovarian,30.9 µM
same,GI50,SW-620 colon,1.57 µM
same,TGI,SW-620 colon,4.21 µM
same,GI50,HS 578T breast,2.99 µM
